{"source": "patent US20040057943A1", "about": "“Probiotic strains, a process for the selection of them, compositions thereof, and their use” (priority 2002, published 2004)", "tested_on": "Salmonella typhmurium and Escherichia coli", "test": "Production of antimicrobial metabolites, agar well diffusion assay", "format": "cell-based", "details": "pH 4.5; data not shown", "protocol": "The probiotic strains of this invention were assessed for their capability to produce antimicrobial metabolites using an agar well diffusion assay. MRS agar plates containing 10^6 cfu/ml of different pathogenic bacteria strain (Salmonella typhmurium and Escherichia coli) were prepared. Wells, with a diameter of 5 mm, where then cut in the agar using a sterile cork-borer. Then, 50 μl of a 2 fold concentrate supernatant of each probiotic strain culture were added to the wells and allowed to diffuse into the agar during a 2 hours preincubation period at 4° C., followed by aerobic incubation of the plates at 37° C. for 16-18 hours. The antimicrobial activity of each supernatant was considered high if the diameter of the inhibition hallo for both pathogenic bacteria strains was >12, moderate between 8 and 12, and slight <8 (FIG. 11)\nMoreover, it was also tested if the antimicrobial activity of the supernatants was due to a antimicrobial substance or to the production of metabolic acids. […] It was also tested the antimicrobial capabilities of supernatants obtained from bacterial cultures using glucose or lactose as a carbohydrate source."}
{"compound": "CC(=O)O", "note": "[acetic]", "values": [{"measurement": "Inhibitory effect of a dilution of metabolic acid on growth of Salmonella or E. coli", "value": "None of these situations inhibited the growth"}]}
{"compound": "CCCC(=O)O", "note": "[butyric, butyric acid]", "values": [{"measurement": "Inhibitory effect of a dilution of metabolic acid on growth of Salmonella or E. coli", "value": "None of these situations inhibited the growth"}]}
